# Reference: PMC9941179, “Preparation and activity evaluation of angiotensin-I converting enzyme inhibitory peptides from protein hydrolysate of mulberry leaf” (Frontiers in Nutrition, 2023)
# Read-outs that look alike come from different tables or passages of the source. Where no end group is shown, it is not given here.
# What was measured:
# ACE [1] = target: T1, ACE (Homo sapiens, UniProt P12821); experiment: ACE inhibitory activity of synthetic peptides; format: biochemical
# T1 construct: purchased Tong Ren Chemical Co., Ltd. (Institute of Tongren Chemistry, Japan) ACE Kit-WST
# T1 sequence (P12821 30-1306, species assumed): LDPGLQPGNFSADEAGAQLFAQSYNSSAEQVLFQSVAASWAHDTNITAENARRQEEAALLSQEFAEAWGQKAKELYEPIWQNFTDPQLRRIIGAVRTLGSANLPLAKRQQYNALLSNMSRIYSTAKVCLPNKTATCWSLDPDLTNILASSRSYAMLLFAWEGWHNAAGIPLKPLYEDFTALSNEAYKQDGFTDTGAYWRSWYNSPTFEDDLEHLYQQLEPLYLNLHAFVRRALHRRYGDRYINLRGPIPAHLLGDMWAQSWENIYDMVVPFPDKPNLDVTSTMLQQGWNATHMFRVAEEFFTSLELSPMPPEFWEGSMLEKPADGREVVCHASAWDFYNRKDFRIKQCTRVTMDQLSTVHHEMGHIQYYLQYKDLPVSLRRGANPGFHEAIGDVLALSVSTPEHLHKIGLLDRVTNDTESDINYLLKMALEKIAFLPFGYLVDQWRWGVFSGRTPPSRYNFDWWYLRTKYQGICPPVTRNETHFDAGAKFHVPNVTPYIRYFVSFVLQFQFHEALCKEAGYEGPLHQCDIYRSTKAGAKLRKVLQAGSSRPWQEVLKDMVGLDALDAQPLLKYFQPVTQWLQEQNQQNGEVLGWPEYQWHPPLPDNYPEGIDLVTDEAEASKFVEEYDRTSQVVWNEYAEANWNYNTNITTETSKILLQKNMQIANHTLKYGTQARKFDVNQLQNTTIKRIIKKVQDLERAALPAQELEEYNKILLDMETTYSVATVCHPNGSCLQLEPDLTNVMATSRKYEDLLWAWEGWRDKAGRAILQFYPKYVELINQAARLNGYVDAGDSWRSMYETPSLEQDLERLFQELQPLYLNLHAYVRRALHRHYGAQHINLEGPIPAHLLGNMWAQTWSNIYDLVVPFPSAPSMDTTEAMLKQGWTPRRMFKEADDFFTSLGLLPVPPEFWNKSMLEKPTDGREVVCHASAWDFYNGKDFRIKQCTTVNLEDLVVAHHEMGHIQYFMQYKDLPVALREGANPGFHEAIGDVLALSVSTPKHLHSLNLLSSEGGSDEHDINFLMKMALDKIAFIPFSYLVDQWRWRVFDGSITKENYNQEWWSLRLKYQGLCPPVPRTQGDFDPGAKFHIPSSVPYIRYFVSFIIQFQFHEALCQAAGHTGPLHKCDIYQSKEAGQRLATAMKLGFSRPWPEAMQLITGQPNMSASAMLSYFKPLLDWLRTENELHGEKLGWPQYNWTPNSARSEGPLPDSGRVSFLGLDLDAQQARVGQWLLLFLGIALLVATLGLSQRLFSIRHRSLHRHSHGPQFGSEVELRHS
# Description: The ACE inhibitory activity was determined by ACE Kit-WST (Institute of Tongren Chemistry, Japan). Taking ultra-pure water as blank control, the inhibitory activity of ACE was calculated.
# Pinhibitoryrate%=ABlack1-ASample/ABlack1-ABlack2×100%
# Each experimental procedure was performed three times, and data were expressed as the mean ± standard deviation. Statistical analyses were conducted by one-way analysis of variance using IBM SPSS 20 (SPSS Inc., Chicago, USA). Duncan’s test was applied to determine the significance of multiple groups. The P-value <0.05 was considered statistically significant.
# All the peptides were commercially synthesized and their ACE activity was determined (Figure 8).
# ACE [2] = details: 0.05 mg/L; peptide from broccoli; ref Zhang et al. ([21]); cited from earlier work
# Text: It is of high research value to develop efficient antihypertensive products around botanical angiotensin- I converting enzyme (ACE) inhibitory peptides ([11]). Hypertension is a standard chronic disease and the most critical risk factor for cardio-cerebrovascular disease ([12]). The pathogenesis of hypertension is associated with the renin tensin system (Renin-Angiotensin System, RAS) ([13], [14]). RAS contains two key enzymes: hypertension proteinase (Renin) and ACE ([15]). Therefore, inhibiting the enzyme activity of Renin and ACE is one of the treatments for hypertension ([16], [17]). ACE b ...
# [3] = synthetic peptide, IC50 used as inhibitor concentration in kinetics, read-out: IC50 (peptide concentration in Table 7) (converted)
IC50 (ACE [1]; [3]),Substance,further results
3.34 mM,ERFNVE [ERFNVE],–
0.931 mM,FDDKLD [FDDKLD],–
–,"Lys - Ser - Val - Leu - Leu - Lys - Phe [peptide from broccoli digest, literature]",ACE inhibition rate (ACE [2]): 42.86%
–,MELVLK [MELVLK],"IC50 (ACE [1]; chemosynthetic peptide, purity greater than 95%, read-out: IC50 (converted)): 2.6 mM"
1.4 mM,TELVLK [TELVLK],–
